Patent publication US5441948A, “1,3,4-benzotraizepin-5(4H)-one derivatives and process for the preparation thereof” (priority 1992, dated 1995)

Legend:
[1] = test system: isolated canine Purkinje fibres; experiment: Intracellular electrophysiology, action potential duration (50% and 90% repolarization) in isolated canine Purkinje fibres; format: cell-based, canine (mongrel dogs)
Description: I. Intracellular electrophysiological studies on isolated canine Purkinje fibres: study of the characteristics and the duration of the action potential
Mongrel dogs of both sexes, weighing 8-22 kg, were anaesthetized with intravenously administered sodium pentobarbital, 30 mg/kg (Nembutal®).The superficial Purkinje fibres were excised from the heart and placed in plastic organ bath containing Tyrode's solution ([…] of Na^+, 4.0 mM of K^+, 133.3 mM of Cl^-, 2.0 mM of Ca^2+, 22.0 mM of HCO3 -, 0.9 mM of H2 PO4^+, 0.7 mM of Mg^2+, 5.0 mM of glucose) The perfusate (Tyrode's solution) was gassed with a mixture of 95% of O^2 and 5% of CO2. Temperature of the organ bath was 37.0°±0.5° C. pH=7.3±0.5. Purkinje fibres were incubated for 1-2 hours in order to avoid spontaneous changes in the duration of action potential, to be observed often for a short period after the preparation completed. Conventional glass microelectrode method was used to measure intracellular action potentials. The electrodes were filled with 3M KCl solution, resistance was 5-15 Mohm. Microelectrodes were connected to high input-resistance capacity-neutralizing amplifier through a Ag-AgCl connection. Another electrode was placed in the organ bath as a reference electrode. Maximum rate of depolarization (Vmax) was measured with an electronic differentiating unit. The intracellular pulses were visualized on a two-channel oscilloscope by a microcomputer in on-line mode. The following parameters were measured: resting potential, action potential amplitude, 50% and 90% repolarizations, maximum rate of depolarization. Preparations were stimulated through silver electrodes insulated with PTFE. Parameters of stimuli were rectangular pulses of 1 ms duration with an intensity of two times the threshold. The basal stimulation periods were changed between 200 and 1000 msec. [Varre et al., J. Cardiovasc. Pharmacol. 11, 251 (1988)].
The applied dose of the compounds according to the invention is 10 mg/L.
Concentration of Pinacidil: 1 mg/L
Concentration of Nicorandil: 5 mg/L
APD: action potential duration

[2] = test system: vasopressin-induced ST elevation; experiment: Inhibitory effect on the vasopressin-induced ST elevation in anaesthetized rats; format: in vivo, CFY male rats; settings: vasopressin 3 IE/kg i.v.
Description: II. Inhibitory effect on the vasopressin-induced ST elevation in anaesthetized rats
The studies were performed in 200-250 g CFY male rats. Animals were anaesthetized with intraperitoneally administered urethane ([…]), then subjected to ECG, using limb leads. Coronary spasm, reflected by elevated ST deflection in the ECG recordings, was induced by treating the rats with 3 IE/kg of vasopressin intravenously. […] Methods. 5, 325-336 (1981)].
Dose of compounds of the invention: 1 mg/kg, i.v. except where appears

[3] = result in words, characteristic of drugs with merely K+-channel-activating activity; cited from earlier work
[4] = 5.0 mg/kg i.v. pretreatment (*)

## CN1NC(N=C(N)N2CCCCC2)=Nc2ccccc2C1=O [Example 4, 2-[Amino-(1-piperidinyl)-methyleneamino]-4-methyl-3,4-dihydro-4H-1,3,4-benzotriazepin-5-one]
[1]; 10 mg/L
  ADD90 Change (%): -10%
  ARD50 Change (%): -33%
  ADD90 after treatment: 226 ms
  ARD50 after treatment: 113 ms
[2]; [4]
  Inhibition (%) of vasopressin-induced ST elevation: -36%

## CC(NC(N)=NC1=Nc2ccccc2C(=O)N(C)N1)C(C)(C)C (stereo not drawn) [Example 17, 2-[amino-(3,3-dimethyl-2-butylamino)-methyleneamino]-4-methyl-3,4-dihydro-1,3,4-benzotriazepin-5(4H)-one]
[1]; 10 mg/L
  ADD90 Change (%): -13%
  ARD50 Change (%): -42%
  ADD90 after treatment: 221 ms
  ARD50 after treatment: 91 ms
[2]; 1 mg/kg, i.v. pretreatment
  Inhibition (%) of vasopressin-induced ST elevation: -68%

## CC(NC1=Nc2ccccc2C(=O)N(C)N1)C(C)(C)C (stereo not drawn) [Example 18, 2-(3,3-dimethyl-2-butylamino)-4-methyl-3,4-dihydro-1,3,4-benzotriazepin-5(4H)-one]
[1]; 10 mg/L
  ADD90 Change (%): -15%
  ARD50 Change (%): -29%
  ADD90 after treatment: 213 ms
  ARD50 after treatment: 111 ms

## COc1cc(C(=O)OCCCN2C(N=C(N)N3CCCNCC3)=Nc3ccccc3C(=O)N2C)cc(OC)c1OC [Example 19, 2-[amino-(1-homopiperazinyl)-methyleneamino]-3-[3-(3,4,5-trimethoxybenzoyloxy)-1-propyl]-4-methyl-3,4-dihydro-1,3,4-benzotriazepin-5(4H)-one]
[1]; 10 mg/L
  ADD90 Change (%): -9%
  ARD50 Change (%): -25%
  ADD90 after treatment: 237 ms
  ARD50 after treatment: 121 ms
[2]; 1 mg/kg, i.v. pretreatment
  Inhibition (%) of vasopressin-induced ST elevation: -59%

## CN1C(=O)c2ccccc2N=C(NCc2cccnc2)N1CCCN1CCN(c2ccccc2)CC1 [Example 20, 2-(3-pyridylmethylamino)-3-[3-(4-phenyl-1-piperazinyl)-1-propyl]-4-methyl-3,4-dihydro-1,3,4-benzotriazepin-5 (4H)-one]
[1]; 10 mg/L
  ADD90 Change (%): -5%
  ARD50 Change (%): -42%
  ADD90 after treatment: 227 ms
  ARD50 after treatment: 79 ms

## CN1C(=O)c2ccccc2N=C(N=C(N)N2CCCCC2)N1Cc1ccccn1 [Example 22, 2-[amino-(1-piperidinyl)-methyleneamino]-3-(2-pyridylmethyl)-4-methyl-3,4-dihydro-1,3,4-benzotriazepin-5(4H)-one]
[1]; 10 mg/L
  ADD90 Change (%): -10%
  ARD50 Change (%): -39%
  ADD90 after treatment: 219 ms
  ARD50 after treatment: 97 ms
[2]; 1 mg/kg, i.v. pretreatment
  Inhibition (%) of vasopressin-induced ST elevation: -59%

## O=C(NCCO[N+](=O)[O-])c1cccnc1 [Nicorandil, reference compound]
[1]; Nicorandil 5 mg/L
  ADD90 Change (%): -32%
  ARD50 Change (%): -41%
  ADD90 after treatment: 179 ms
  ARD50 after treatment: 107 ms
[2]; 1 mg/kg, i.v. pretreatment
  Inhibition (%) of vasopressin-induced ST elevation: -12%
[2]; [4]
  Inhibition (%) of vasopressin-induced ST elevation: -60%

## CC(N/C(=N\C#N)Nc1ccncc1)C(C)(C)C (stereo not drawn) [Pinacidil, reference compound]
[1]; Pinacidil 1 mg/L
  ADD90 Change (%): -45%
  ARD50 Change (%): -61%
  ADD90 after treatment: 141 ms
  ARD50 after treatment: 71 ms
[3]
  unpleasant side-effects: tachycardia and the so-called "first dose effect"
